The term LD50 denotes the dose expected to kill half of the subjects tested. As usually defined, the EC50 is the concentration needed to bring the measured effect to its halfway point.

Structures can show the parent of a compound that is named as a salt. Where two headings read alike, the source gives them in different places.

This note sets out measurements from patent publication US4324788A, “Alkoxyalkylidenhydrazinopridazines and process for their preparation” (I.S.F. S.p.A., priority 1979, dated 1982).

Data set [1] has as its system guinea-pig isolated atria. The settings on record: isoprenaline agonist, product at 10^-4 M.
The test system of data set [2] is genetically hypertensive rats. As to the kind of experiment: Arterial pressure and heart rate per os in genetically hypertensive rats (SHR). The format is in vivo, rat (genetically hypertensive. Particulars: for HR DE25 (ED25, dose giving an increase of the heart rate of 25%): > = no increase of the heart rate at the maximal tested dose; for ED25: po, read-out: BP DE25 (ED25, dose giving a drop of the blood pressure of 25%). From the text:
activity on the arterial pressure and on the heart rate has been studied per os in genetically hypertensive rats according to the method described in Pharm. Research Comm.

Data set [3] in a line: in vivo. The settings on record: mouse, ip.
The subject of data set [4] is strips of rabbit aorta. As to the kind of experiment: Spasmolytic activity in vitro on strips of rabbit aorta with potassium chloride induced spasm. The format is cell-based. Particulars: Oryctolagus cuniculus, spasm with 30 mM potassium chloride, read-out: EC50 (relaxing 50% the strip of rabbit aorta). The method, then:
spasmolytic activity is determined evaluating the direct relaxant effect on the vasal smooth muscle in vitro on strips of rabbit aorta in which spasm was induced by potassium chloride according to the method described in Journ. of Pharm. and Exper. […] The products were added at sequentially cumulative molar doses and their activity indicated as Effective Concentration (EC50).

The mark [5] stands for this setting: SHR rat, per os, at the moment of maximum effect.

Take `COc1ccc(CCNCC(O)COc2ccc(NN=C(C)C)nn2)cc1OC.Cl.Cl` (stereo not drawn) [3-{3[2(3,4-dimethoxyphenyl)ethyl]amino-2-hydroxypropoxy}6-isopropylidenhydrazinopyridazine dihydrochloride]: the “DR4 (dose ratio of agonist EC50 in the presence and in the absence of the product)” value in data set [1] was found to be 531. Also, the “HR DE25 (ED25, dose giving an increase of the heart rate of 25%)” value in data set [2] (SHR rat, per os) is recorded as more than 60 mg/kg/os. Besides, the ED25 in data set [2] (setting [5]) was 39 mg/kg. In data set [3], this compound registered an LD50 of 300 mg/kg.
Regarding `CCC(C)NCC(O)COc1ccc(NN=C(C)C)nn1.Cl.Cl` (stereo not drawn) [3-[3-(2-butyl)amino-2-hydroxypropoxy]6-isopropylidenhydrazinopyridazine dihydrochloride], in data set [1], the “DR4 (dose ratio of agonist EC50 in the presence and in the absence of the product)” value came out at 72. Besides, in data set [2] (SHR rat, per os), the “HR DE25 (ED25, dose giving an increase of the heart rate of 25%)” value is given as more than 50 mg/kg/os. In addition, in data set [2] (setting [5]), the ED25 was determined as 25 mg/kg. The compound further came in with an LD50 in data set [3] of 300 mg/kg.
Consider `CC(CCc1ccccc1)NCC(O)c1ccc(O)c(C(N)=O)c1` (stereo not drawn) [Labetalol, reference compound], for which the EC50 in data set [4] is more than 10000 µM. In data set [2] (SHR rat, per os), the “HR DE25 (ED25, dose giving an increase of the heart rate of 25%)” value was more than 100 mg/kg/os. The ED25 in data set [2] (setting [5]) stood at 400 mg/kg.
On to `CC(C)=NNc1ccc(OCC(O)CNC(C)(C)C)nn1` (stereo not drawn) [3-(3-t.Butylamino-2-hydroxypropoxy)-6-isopropylidenhydrazinopyridazine dihydrochloride], for which the “DR4 (dose ratio of agonist EC50 in the presence and in the absence of the product)” value in data set [1] is 78. Also, the “HR DE25 (ED25, dose giving an increase of the heart rate of 25%)” value in data set [2] (SHR rat, per os) was more than 100 mg/kg/os. Further, in data set [2] (setting [5]), the ED25 was 50 mg/kg. The same compound returned an LD50 in data set [3] of 500 mg/kg.
With `NNc1nncc2ccccc12` [Hydralazine, reference compound], the EC50 in data set [4] came out at 680 µM. The “DR4 (dose ratio of agonist EC50 in the presence and in the absence of the product)” value in data set [1] came to 1. Further, the “HR DE25 (ED25, dose giving an increase of the heart rate of 25%)” value in data set [2] (SHR rat, per os) was 6.0 mg/kg/os. In data set [2] (setting [5]), the ED25 came to 8.1 mg/kg.
For the compound `CC(C)NCC(O)COc1cccc2ccccc12` (stereo not drawn) [Propanolol, reference compound], the ED25 in data set [2] (Rattus norvegicus) is more than 400 mg/kg. Besides, the “HR DE25 (ED25, dose giving an increase of the heart rate of 25%)” value in data set [2] (SHR rat, per os) was more than 100 mg/kg/os.
Consider `CC(C)=NNc1ccc(OCC(O)CNC(C)C)nn1.Cl.Cl` (stereo not drawn) [3-(3-Isopropylamino-2-hydroxypropoxy)-6-isopropylidenhydrazinopyridazine dihydrochloride], for which, in data set [4], the EC50 came out at 1700 µM. In addition, the “DR4 (dose ratio of agonist EC50 in the presence and in the absence of the product)” value in data set [1] was 77. Further, the “HR DE25 (ED25, dose giving an increase of the heart rate of 25%)” value in data set [2] (SHR rat, per os) is more than 100 mg/kg/os. Also, the ED25 in data set [2] (setting [5]) turned out to be 350 mg/kg. In data set [3], this compound gave an LD50 of 500 mg/kg.
As to `CC(C)=NNc1ccc(OCC(O)CNC(C)CCc2ccccc2)nn1.Cl.Cl` (stereo not drawn) [3-[3-(4-phenyl-2-butyl)amino-2-hydroxypropoxy]6-isopropylidenhydrazinopyridazine dihydrochloride], the “DR4 (dose ratio of agonist EC50 in the presence and in the absence of the product)” value in data set [1] is 80. The “HR DE25 (ED25, dose giving an increase of the heart rate of 25%)” value in data set [2] (SHR rat, per os) is reported as more than 40 mg/kg/os. Besides, the ED25 in data set [2] (setting [5]) is 17 mg/kg. This compound also yielded an LD50 in data set [3] of 200 mg/kg.
